According to ChEMBL document CHEMBL1681769, “Tetrahydroquinolin-3-yl carbamate glucocorticoid receptor agonists with reduced PEPCK activation” (Bioorg Med Chem Lett, 2011):

Assays:
[1] = molecular target: T1, Glucocorticoid receptor (Homo sapiens, UniProt P04150)
T1 sequence (P04150 whole entry): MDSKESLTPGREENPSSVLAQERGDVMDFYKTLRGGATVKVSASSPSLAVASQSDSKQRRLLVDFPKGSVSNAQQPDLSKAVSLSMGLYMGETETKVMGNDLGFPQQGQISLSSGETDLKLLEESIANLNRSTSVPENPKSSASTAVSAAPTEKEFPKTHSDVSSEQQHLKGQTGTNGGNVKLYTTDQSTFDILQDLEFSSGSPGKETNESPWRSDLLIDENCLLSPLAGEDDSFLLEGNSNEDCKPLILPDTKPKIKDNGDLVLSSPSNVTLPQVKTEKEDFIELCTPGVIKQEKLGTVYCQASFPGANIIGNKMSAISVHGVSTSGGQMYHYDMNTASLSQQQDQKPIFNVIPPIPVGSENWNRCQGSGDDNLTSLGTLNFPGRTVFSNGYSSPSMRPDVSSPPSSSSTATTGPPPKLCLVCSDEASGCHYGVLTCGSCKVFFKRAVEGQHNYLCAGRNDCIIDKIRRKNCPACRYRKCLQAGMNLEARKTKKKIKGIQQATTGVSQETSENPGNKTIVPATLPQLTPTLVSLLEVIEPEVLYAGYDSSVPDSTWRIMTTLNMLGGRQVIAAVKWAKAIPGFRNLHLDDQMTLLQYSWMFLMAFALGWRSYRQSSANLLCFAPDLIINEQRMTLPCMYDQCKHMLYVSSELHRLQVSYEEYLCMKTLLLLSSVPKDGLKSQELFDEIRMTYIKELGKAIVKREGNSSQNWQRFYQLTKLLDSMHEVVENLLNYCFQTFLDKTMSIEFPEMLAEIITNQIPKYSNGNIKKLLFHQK
Description: Displacement of radiolabeled Dexamethasone from GR

[2] = molecular target: T1, Glucocorticoid receptor; assay type: cell-based, NHDF
Description: Transrepression activity at GR expressed in NHDF cells assessed as IL-1beta-mediated IL-6 transcription by ELISA

[3] = molecular target: T1, Glucocorticoid receptor; assay type: functional, cell-based, CV-1
Description: Agonist activity at GR expressed in african green monkey CV1 cells transfected with luciferase gene linked to MMTV promoter assessed as induction of luciferase transactivation activity

[4] = molecular target: T1, Glucocorticoid receptor; assay type: cell-based, HepG2
Description: Transrepression activity at GR expressed in IL-1beta- and TNFalpha-stimulated HepG2 cells assessed as inhibition of NFKB- or AP-1 mediated E-selectin transcription by luciferase reporter gene assay

[5] = molecular target: T1, Glucocorticoid receptor; assay type: functional, cell-based, H4IIEC3
Description: Agonist activity at GR expressed in rat H4IIEC3 cells assessed as induction of PEPCK transactivation by luciferase reporter gene assay

[6] = molecular target: T2, Mineralocorticoid receptor (Homo sapiens, UniProt P08235); assay: Binding affinity to mineralocorticoid receptor
T2 sequence (P08235 whole entry): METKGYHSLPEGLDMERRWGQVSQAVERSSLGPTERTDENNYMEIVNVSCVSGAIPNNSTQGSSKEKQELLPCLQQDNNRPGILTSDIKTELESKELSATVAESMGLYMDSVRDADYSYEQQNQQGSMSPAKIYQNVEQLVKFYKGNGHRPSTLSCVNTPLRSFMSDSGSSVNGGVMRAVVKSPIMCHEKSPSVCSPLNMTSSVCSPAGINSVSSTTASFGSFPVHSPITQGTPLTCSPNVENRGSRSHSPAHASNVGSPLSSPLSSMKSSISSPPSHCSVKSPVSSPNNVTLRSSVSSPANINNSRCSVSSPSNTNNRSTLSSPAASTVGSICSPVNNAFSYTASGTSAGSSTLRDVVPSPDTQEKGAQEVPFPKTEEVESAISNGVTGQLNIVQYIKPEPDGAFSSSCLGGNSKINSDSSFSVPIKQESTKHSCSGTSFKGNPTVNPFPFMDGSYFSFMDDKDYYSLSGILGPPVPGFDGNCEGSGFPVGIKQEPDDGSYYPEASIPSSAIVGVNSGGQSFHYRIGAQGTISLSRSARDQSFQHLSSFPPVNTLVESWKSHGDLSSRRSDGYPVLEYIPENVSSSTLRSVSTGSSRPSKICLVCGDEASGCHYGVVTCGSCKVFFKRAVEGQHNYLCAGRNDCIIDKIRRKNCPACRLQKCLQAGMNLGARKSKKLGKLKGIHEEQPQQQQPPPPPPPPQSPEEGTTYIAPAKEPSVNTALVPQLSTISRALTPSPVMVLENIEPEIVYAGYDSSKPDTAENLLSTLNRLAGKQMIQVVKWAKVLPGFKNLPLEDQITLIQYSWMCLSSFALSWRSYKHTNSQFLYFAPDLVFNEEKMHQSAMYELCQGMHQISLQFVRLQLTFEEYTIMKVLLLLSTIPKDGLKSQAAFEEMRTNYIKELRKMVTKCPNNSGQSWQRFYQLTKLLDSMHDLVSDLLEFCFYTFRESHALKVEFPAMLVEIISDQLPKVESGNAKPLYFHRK

[7] = molecular target: T3, Progesterone receptor (Homo sapiens, UniProt P06401); assay: Binding affinity to progesterone receptor
T3 sequence (P06401 whole entry): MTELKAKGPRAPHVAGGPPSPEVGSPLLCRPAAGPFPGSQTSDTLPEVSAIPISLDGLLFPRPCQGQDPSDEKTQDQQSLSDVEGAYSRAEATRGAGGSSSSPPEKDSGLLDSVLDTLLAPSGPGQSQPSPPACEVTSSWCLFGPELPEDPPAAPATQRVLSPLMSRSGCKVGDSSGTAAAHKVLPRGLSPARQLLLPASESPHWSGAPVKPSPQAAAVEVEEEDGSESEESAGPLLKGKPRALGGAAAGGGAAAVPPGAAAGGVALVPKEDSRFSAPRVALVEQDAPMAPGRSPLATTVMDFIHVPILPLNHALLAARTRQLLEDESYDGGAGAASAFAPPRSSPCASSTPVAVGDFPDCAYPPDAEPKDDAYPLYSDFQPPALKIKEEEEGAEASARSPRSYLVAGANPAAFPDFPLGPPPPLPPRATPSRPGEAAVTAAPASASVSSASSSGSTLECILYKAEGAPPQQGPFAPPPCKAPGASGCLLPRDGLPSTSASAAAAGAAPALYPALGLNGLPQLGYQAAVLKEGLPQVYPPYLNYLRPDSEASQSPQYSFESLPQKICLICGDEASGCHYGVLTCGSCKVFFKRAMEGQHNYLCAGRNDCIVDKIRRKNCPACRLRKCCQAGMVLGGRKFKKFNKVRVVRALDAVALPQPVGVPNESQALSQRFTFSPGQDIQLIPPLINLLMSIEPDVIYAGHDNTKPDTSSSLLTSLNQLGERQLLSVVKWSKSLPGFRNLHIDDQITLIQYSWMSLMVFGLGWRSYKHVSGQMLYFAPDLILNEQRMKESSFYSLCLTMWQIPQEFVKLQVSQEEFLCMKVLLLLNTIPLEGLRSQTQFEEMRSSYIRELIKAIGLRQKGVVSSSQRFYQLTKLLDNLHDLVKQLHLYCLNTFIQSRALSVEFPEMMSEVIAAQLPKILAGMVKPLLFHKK

SMILES | Ki [1] [µM] | IC50 [2] [µM] | EC50 [3] [µM] | IC50 [4] [µM] | EC50 [5] [µM] | Ki [6] [µM] | Ki [7] [µM]
C[C@H]1c2c(cc(F)c(-c3cccc4cc[nH]c34)c2F)NC(C)(C)[C@@H]1OC(=O)Nc1ccccc1 | 0.0062 | > 1 | 0.105 | 0.04 | – | – | –
C[C@H]1c2c(cc(F)c(-c3cccc4c(Cl)c[nH]c34)c2F)NC(C)(C)[C@@H]1OC(=O)Nc1ccccc1 | 0.0076 | 0.033 | 0.0076 | 0.0091 | 0.379 | – | –
C[C@H]1c2c(cc(F)c(-c3cccc4cc[nH]c34)c2F)NC(C)(C)[C@@H]1OC(=O)N(C)c1ccccc1 | 0.0143 | > 1 | > 1 | > 1 | – | – | –
COc1ccc(NC(=O)O[C@@H]2[C@@H](C)c3c(cc(F)c(-c4cccc5cc[nH]c45)c3F)NC2(C)C)cc1Cl | 0.0116 | 0.031 | 0.011 | 0.0075 | 0.687 | – | –
COc1ccc(NC(=O)O[C@@H]2[C@@H](C)c3c(cc(F)c(-c4cccc5c(Cl)c[nH]c45)c3F)NC2(C)C)cc1Cl | 0.0067 | 0.012 | 0.0058 | 0.0057 | 0.283 | – | –
C[C@H]1c2c(cc(F)c(-c3cccc4cc[nH]c34)c2F)NC(C)(C)[C@@H]1OC(=O)Nc1ccc2c(c1)OCO2 | 0.0122 | 0.05 | 0.018 | 0.0085 | 0.874 | – | –
C[C@H]1c2c(cc(F)c(-c3cccc4cc[nH]c34)c2F)NC(C)(C)[C@@H]1OC(=O)Nc1ccc(C#N)cc1 | 0.0161 | 0.016 | 0.021 | 0.01 | – | – | –
C[C@H]1c2c(cc(F)c(-c3cccc4c(Cl)c[nH]c34)c2F)NC(C)(C)[C@@H]1OC(=O)Nc1ccc(C#N)cc1 | 0.0137 | 0.005 | 0.0051 | 0.0081 | 0.272 | – | –
C[C@H]1c2c(cc(F)c(-c3cccc4cc[nH]c34)c2F)NC(C)(C)[C@@H]1OC(=O)Nc1ccc(Cl)cc1 | 0.07 | 0.029 | 0.178 | 0.044 | – | – | –
COC(=O)c1ccc(NC(=O)O[C@@H]2[C@@H](C)c3c(cc(F)c(-c4cccc5cc[nH]c45)c3F)NC2(C)C)cc1 | 0.03 | 0.016 | 0.015 | 0.029 | 0.267 | – | –
C[C@H]1c2c(cc(F)c(-c3cccc4cc[nH]c34)c2F)NC(C)(C)[C@@H]1OC(=O)Nc1ccc(N(C)C)cc1 | 0.0051 | 0.039 | 0.0035 | 0.0084 | 0.361 | – | –
C[C@H]1c2c(cc(F)c(-c3cccc4cc[nH]c34)c2F)NC(C)(C)[C@@H]1O (racemic) | – | – | – | – | 0.098 | – | –
CNC(=O)O[C@@H]1[C@@H](C)c2c(cc(F)c(-c3cccc4cc[nH]c34)c2F)NC1(C)C (racemic) | 0.003 | > 1 | 0.039 | 0.01 | 0.199 | – | –
CNC(=O)O[C@@H]1[C@@H](C)c2c(cc(F)c(-c3cccc4c(Cl)c[nH]c34)c2F)NC1(C)C (racemic) | 0.0022 | 0.052 | 0.021 | 0.012 | 0.463 | – | –
C[C@H]1c2c(cc(F)c(-c3cccc4c(Cl)c[nH]c34)c2F)NC(C)(C)[C@@H]1OC(=O)NCc1ccccc1 (racemic) | 0.0068 | 0.04 | 0.017 | 0.044 | 0.454 | 0.656 | 0.16
CC(C)NC(=O)O[C@@H]1[C@@H](C)c2c(cc(F)c(-c3cccc4c(Cl)c[nH]c34)c2F)NC1(C)C (racemic) | 0.0078 | 0.017 | 0.089 | 0.045 | 0.361 | 0.378 | 0.213
C[C@H]1c2c(cc(F)c(-c3cccc4c(Cl)c[nH]c34)c2F)NC(C)(C)[C@@H]1OC(=O)NC1CCCCC1 (racemic) | 0.0043 | 0.023 | 0.07 | 0.015 | 0.435 | 2.25 | 0.093
C[C@H]1c2c(cc(F)c(-c3cccc4cc[nH]c34)c2F)NC(C)(C)[C@@H]1OC(=O)N1CCCCC1 (racemic) | 0.132 | – | > 1 | > 1 | – | – | –
CC(=O)c1ccc(NC(=O)O[C@@H]2[C@@H](C)c3c(cc(F)c(-c4cccc5cc[nH]c45)c3F)NC2(C)C)cc1 (racemic) | 0.0029 | 0.031 | 0.016 | 0.023 | 0.182 | 1.11 | 0.231
C[C@H]1c2c(cc(F)c(-c3cccc4cc[nH]c34)c2F)NC(C)(C)[C@@H]1OC(=O)Nc1cccc(C#N)c1 (racemic) | 0.0137 | 0.038 | 0.024 | 0.013 | 0.287 | 1.47 | 0.662
CC(=O)c1cccc(NC(=O)O[C@@H]2[C@@H](C)c3c(cc(F)c(-c4cccc5cc[nH]c45)c3F)NC2(C)C)c1 (racemic) | 0.0094 | 0.022 | 0.029 | 0.049 | 0.333 | 3.17 | 0.68
